Source: ChEMBL document CHEMBL1201862, “PubChem BioAssay data set” (2004)
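A five-concentration, 48-hour dose response in 96-well plates underlies each endpoint, interpolated linearly between surrounding concentrations. The concentration for 50% growth inhibition is given as GI50.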 Active and inactive are the calls of the source. Cut-off read from the data, not from the text of the source: active = GI50 up to about 1.1 µM and inactive = higher.

Columns and labels:
Assay in all cases: NCI anticancer screen, dose series, 48 h
[1] = test system: OVCAR-3
[2] = test system: TK-10
[3] = test system: Malme-3M
[4] = test system: SF-268
[5] = test system: SN12C
[6] = test system: MDA-MB-435
[7] = test system: UACC-257
[8] = test system: MOLT-4
[9] = test system: SW-620
[10] = test system: M14
[11] = test system: OVCAR-5
[12] = test system: SNB-75
[13] = test system: OVCAR-8
[14] = test system: ACHN
[15] = test system: K562
[16] = test system: NCI-H522
[17] = test system: A549
[18] = test system: HCT-15
[19] = test system: U-251
[20] = test system: NCI-H226

Structure (SMILES)	GI50 [1]	GI50 [2]	GI50 [3]	GI50 [4]	GI50 [5]	GI50 [6]	GI50 [7]	GI50 [8]	GI50 [9]	GI50 [10]	GI50 [11]	GI50 [12]	GI50 [13]	GI50 [14]	GI50 [15]	GI50 [16]	GI50 [17]	GI50 [18] [µM]	GI50 [19]	GI50 [20]
COc1ccc2[nH]c(Cl)c(/C=C3/C(=O)N(c4ccccc4)c4ccccc43)c2c1	3.37 µM (inactive)	10.8 µM (inactive)	6.76 µM (inactive)	5.08 µM (inactive)	4.78 µM (inactive)	1.46 µM (inactive)	7.13 µM (inactive)	3.82 µM (inactive)	3.78 µM (inactive)	3.66 µM (inactive)	13.6 µM (inactive)	12.3 µM (inactive)	6.44 µM (inactive)	7.57 µM (inactive)	3.18 µM (inactive)	3.25 µM (inactive)	5.31 µM (inactive)	2.58	3.98 µM (inactive)	
COc1cc2c3c4[n+](cc2c(OC)c1OC)CCC4CCC3 (stereo unspecified)	46.9 µM (inactive)	> 100 µM (inactive)	20.4 µM (inactive)	> 100 µM (inactive)	> 100 µM (inactive)	> 100 µM (inactive)	57.3 µM (inactive)	> 100 µM (inactive)	> 100 µM (inactive)	> 100 µM (inactive)	> 100 µM (inactive)		> 100 µM (inactive)	> 100 µM (inactive)	17.9 µM (inactive)	51.3 µM (inactive)	> 100 µM (inactive)	> 100	53.8 µM (inactive)	> 100 µM (inactive)
NNc1nnc(CCCCCCCCc2nnc(NN)n2N)n1N		> 100 µM (inactive)		43.3 µM (inactive)	> 100 µM (inactive)	> 100 µM (inactive)	> 100 µM (inactive)	33.2 µM (inactive)	> 100 µM (inactive)	> 100 µM (inactive)	> 100 µM (inactive)	60.3 µM (inactive)	17.1 µM (inactive)	> 100 µM (inactive)	14 µM (inactive)	38.7 µM (inactive)	> 100 µM (inactive)	> 100	16.9 µM (inactive)	> 100 µM (inactive)
Cn1c(=O)cc(NCCc2ccccc2)[nH]c1=O	16.1 µM (inactive)	> 100 µM (inactive)	34.8 µM (inactive)	> 100 µM (inactive)	23.3 µM (inactive)	5.46 µM (inactive)	50 µM (inactive)	35.2 µM (inactive)	27.5 µM (inactive)	27.8 µM (inactive)	> 100 µM (inactive)	19.9 µM (inactive)	43.4 µM (inactive)	39.3 µM (inactive)	19.1 µM (inactive)		38.8 µM (inactive)	29.3	61.1 µM (inactive)	> 100 µM (inactive)
O=C(NCC(O)COc1ccccc1)c1ccccc1O (stereo unspecified)	> 100 µM (inactive)	> 100 µM (inactive)	> 100 µM (inactive)		> 100 µM (inactive)	> 100 µM (inactive)	> 100 µM (inactive)	14.5 µM (inactive)	> 100 µM (inactive)	> 100 µM (inactive)	> 100 µM (inactive)		> 100 µM (inactive)	> 100 µM (inactive)	> 100 µM (inactive)	55.6 µM (inactive)	> 100 µM (inactive)	> 100	> 100 µM (inactive)	> 100 µM (inactive)
COc1ccc(-c2nc(-c3cnccn3)n(C3OC(CO)C(O)C(O)C3O)n2)cc1 (stereo unspecified)	> 100 µM (inactive)	> 100 µM (inactive)		> 100 µM (inactive)	> 100 µM (inactive)	> 100 µM (inactive)	> 100 µM (inactive)	> 100 µM (inactive)	> 100 µM (inactive)	> 100 µM (inactive)	> 100 µM (inactive)	> 100 µM (inactive)	> 100 µM (inactive)		> 100 µM (inactive)	> 100 µM (inactive)	> 100 µM (inactive)	> 100	> 100 µM (inactive)	
CC(C)(C)c1cc2c(c(C(C)(C)C)c1O)CC(=O)O2	16.6 µM (inactive)	30.4 µM (inactive)		44.4 µM (inactive)	34.8 µM (inactive)	27 µM (inactive)	24.6 µM (inactive)	35.1 µM (inactive)	42.4 µM (inactive)	25.8 µM (inactive)	71.6 µM (inactive)		32.2 µM (inactive)	22.8 µM (inactive)	34 µM (inactive)	46 µM (inactive)	31.2 µM (inactive)	45.9	41.9 µM (inactive)	30.8 µM (inactive)
CC(C)=CC1C(C(=O)Oc2ccccc2C(C)C)C1(C)C (stereo unspecified)	17.8 µM (inactive)	32.8 µM (inactive)	16.3 µM (inactive)	35.5 µM (inactive)	20.5 µM (inactive)	30.8 µM (inactive)	19.5 µM (inactive)		24.3 µM (inactive)	31.6 µM (inactive)	27.1 µM (inactive)	21.3 µM (inactive)	31.7 µM (inactive)	18.4 µM (inactive)	25.8 µM (inactive)	16.6 µM (inactive)	31.1 µM (inactive)	21	16.7 µM (inactive)	
C=C1CC[C@H]2C(C)=CC[C@H]3C(=C)C(=O)O[C@@H]3[C@@H]12 [EREMANTHIN]		> 100 µM (inactive)	> 100 µM (inactive)		> 100 µM (inactive)	> 100 µM (inactive)	> 100 µM (inactive)	> 100 µM (inactive)	> 100 µM (inactive)	> 100 µM (inactive)	> 100 µM (inactive)		> 100 µM (inactive)	> 100 µM (inactive)	> 100 µM (inactive)	> 100 µM (inactive)	> 100 µM (inactive)	> 100	> 100 µM (inactive)	> 100 µM (inactive)
OCc1c2c(cc3c1CC1(C3)Cc3cc4c(c(CO)c3C1)CCC4)CCC2	14.4 µM (inactive)	19.6 µM (inactive)	15.3 µM (inactive)		16.9 µM (inactive)	20.6 µM (inactive)	11.6 µM (inactive)	9.95 µM (inactive)		18 µM (inactive)	19.8 µM (inactive)		18.6 µM (inactive)	10.3 µM (inactive)	7.35 µM (inactive)	13.3 µM (inactive)	14.4 µM (inactive)	18	15.8 µM (inactive)	11.6 µM (inactive)
CNc1ncnc2c1nc(NC1CCCC1)n2C1OC(CO)C(O)C1O (stereo unspecified)	> 100 µM (inactive)	> 100 µM (inactive)	> 100 µM (inactive)	> 100 µM (inactive)	> 100 µM (inactive)	> 100 µM (inactive)		> 100 µM (inactive)	> 100 µM (inactive)	> 100 µM (inactive)	> 100 µM (inactive)		> 100 µM (inactive)	> 100 µM (inactive)		> 100 µM (inactive)	> 100 µM (inactive)	> 100	> 100 µM (inactive)	
c1ccc(/C(=N/Nc2cnccn2)c2ncccn2)cc1	30.8 µM (inactive)			22.5 µM (inactive)	> 100 µM (inactive)	> 100 µM (inactive)	> 100 µM (inactive)	28.6 µM (inactive)	41.1 µM (inactive)	78.2 µM (inactive)	> 100 µM (inactive)	13.7 µM (inactive)	46 µM (inactive)	40.7 µM (inactive)	> 100 µM (inactive)	14.9 µM (inactive)	> 100 µM (inactive)	50.6	> 100 µM (inactive)	
c1ccc(CCN2CCOCC2)nc1	> 100 µM (inactive)	> 100 µM (inactive)	> 100 µM (inactive)	> 100 µM (inactive)	> 100 µM (inactive)	> 100 µM (inactive)	> 100 µM (inactive)		> 100 µM (inactive)	> 100 µM (inactive)	> 100 µM (inactive)		> 100 µM (inactive)	> 100 µM (inactive)	> 100 µM (inactive)	> 100 µM (inactive)	> 100 µM (inactive)	> 100	> 100 µM (inactive)	> 100 µM (inactive)
Cc1ccnc2nc(-c3cccc(Cl)c3)cc(O)c12	0.0279 µM (active)	> 100 µM (inactive)		20.7 µM (inactive)	0.139 µM (active)	< 0.01 µM (active)	> 100 µM (inactive)	0.0658 µM (active)	0.0524 µM (active)	0.0822 µM (active)		> 10 µM (inactive)	0.308 µM (active)	1.34 µM (inactive)	< 0.0143 µM (active)	0.0459 µM (active)	0.0748 µM (active)	0.0407	0.0596 µM (active)	3.4 µM (inactive)
COc1c(C)c(C/C=C(\C)CCCC(C)CCCC(C)CCCC(C)C)c(OC)c2ccccc12 (stereo unspecified)	> 100 µM (inactive)	> 100 µM (inactive)		> 100 µM (inactive)	> 100 µM (inactive)	> 100 µM (inactive)	> 100 µM (inactive)	> 100 µM (inactive)	> 100 µM (inactive)	> 100 µM (inactive)	> 100 µM (inactive)	> 100 µM (inactive)	> 100 µM (inactive)	> 100 µM (inactive)	> 100 µM (inactive)	> 100 µM (inactive)	> 100 µM (inactive)	> 100	> 100 µM (inactive)	
Cc1ccc(NC(=S)C#N)cc1Cl	21.5 µM (inactive)	60.4 µM (inactive)	23.4 µM (inactive)	36.9 µM (inactive)	58.5 µM (inactive)	41.8 µM (inactive)	46.3 µM (inactive)	32.8 µM (inactive)	48.8 µM (inactive)	36.9 µM (inactive)	24.8 µM (inactive)	21.5 µM (inactive)	35.7 µM (inactive)	37.7 µM (inactive)	39.3 µM (inactive)		23.8 µM (inactive)	23.3	55.8 µM (inactive)	24.3 µM (inactive)
